Data taken from patent publication US20240368168A1, “SARM1 ENZYME ACTIVITY INHIBITOR AND APPLICATION THEREOF” (ARTIVILA BIOPHARMA, priority 2021, published 2024).

Tests used:
dN-SARM1 protein = target: T1, dN-SARM1 protein (Homo sapiens, UniProt Q6SZW1); experiment: In vitro biochemical assay for inhibiting SARM1 enzymatic activity (IC50), PC6 fluorescence method; conditions: 50 μM NAD, 50 μM PC6, 50 μM NMN activator
T1 construct: the N-terminal mitochondrial localization signal peptide of SARM1 was removed
T1 sequence (Q6SZW1 28-724): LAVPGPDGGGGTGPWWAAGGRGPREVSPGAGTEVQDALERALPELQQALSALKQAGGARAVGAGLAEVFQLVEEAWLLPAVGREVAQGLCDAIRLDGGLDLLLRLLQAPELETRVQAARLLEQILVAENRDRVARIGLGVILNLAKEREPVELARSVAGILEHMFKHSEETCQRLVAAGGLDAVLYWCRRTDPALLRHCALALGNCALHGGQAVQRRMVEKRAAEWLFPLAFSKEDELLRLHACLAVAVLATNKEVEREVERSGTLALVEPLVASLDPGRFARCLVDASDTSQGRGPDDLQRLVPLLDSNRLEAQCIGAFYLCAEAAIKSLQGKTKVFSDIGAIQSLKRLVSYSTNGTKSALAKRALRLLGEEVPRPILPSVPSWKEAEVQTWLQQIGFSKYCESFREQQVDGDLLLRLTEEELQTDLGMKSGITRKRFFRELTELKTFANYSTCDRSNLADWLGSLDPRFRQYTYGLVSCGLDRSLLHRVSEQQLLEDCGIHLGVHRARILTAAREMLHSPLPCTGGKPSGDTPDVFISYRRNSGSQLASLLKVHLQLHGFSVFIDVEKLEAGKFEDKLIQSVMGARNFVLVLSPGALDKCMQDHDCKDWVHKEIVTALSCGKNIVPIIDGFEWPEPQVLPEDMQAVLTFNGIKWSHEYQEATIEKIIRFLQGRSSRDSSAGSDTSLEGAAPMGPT
Method: 200 μM compound was first added to a solution of 0.05 μg/ml dN-SARM1 in 50 mM Tris-HCl (pH 7.5). Half of the mixture was added to an equal volume of a solution of 0.05 μg/ml dN-SARM1 in 50 mM Tris-HCl (pH 7.5) and mixed. The drug was diluted 6 times in this manner, with the final concentrations being 200, 100, 50, 25, 12.5, 6.25, 3.125 μM, or 200, 50, 12.5, 3.125, 0.78, 0.195, 0.049 μM, respectively. The protein without inhibitors added, being used as control group, was incubated at room temperature for 10 minutes.
50 μM NAD, 50 μM PC6 as substrate and 50 μM NMN as activator were added to the dN-SARM1 protein incubated with the inhibitor and reacted for 30 minutes at room temperature. The concentration of each component was the final concentration in the reaction system.
During the reaction, PC6 fluorescence spectrum dynamics were detected by a microplate reader, wherein the excitation wavelength and emission wavelength for detection were 390 nm and 520 nm, respectively. Finally, the reaction rate was used to express the activity of the protein, and the half inhibitory concentration was calculated. The higher the reaction rate, the stronger the protein activity, and the lower the inhibitory efficiency of the compound.
The dose curve of compounds inhibiting SARM1 enzymatic activity was determined using the above method.

[1] = target: T2, SARM1 protein in iSARM1 (HEK293) cells (Homo sapiens, UniProt Q6SZW1); experiment: Inhibitory activity in inducible SARM1 overexpressing cell line, intracellular cADPR level; type: cell-based; conditions: activator CZ-48 100 μM, cADPR content
T2 construct: The full-length SARM1 was synthesized into the pUC57 plasmid by WZ Biosciences Inc., and PCR was performed using pUC57-SARM1 as a DNA template
T2 sequence (Q6SZW1 28-724): T1 sequence (Q6SZW1 28-724)
Method: In this example, the gene sequence of SARM1 was amplified using PCR, and constructed into pInducer20-neo plasmid. pInducer20-SARM1 virus was packaged in a liposome and infected HEK293 to obtain an inducible SARM1-overexpressing cell line, which was labeled as iSARM1 (HEK293). The specific preparation was as follows:
First, a 96-well culture plate was treated with 0.05 mg/ml polylysine for 5 minutes and washed once with PBS. 3×10^4 iSARM1 (HEK293) cells were plated into the 96-well plate and cultured overnight in a 37° C. and 5% incubator. The next day, the cells were added with an inhibitor with a final concentration of 50 μM, incubated in the incubator for 1.5 hours, added with activator CZ-48 with a final concentration of 100 μM, and incubated for 16 hours. Meanwhile, the cells without adding CZ-48 or without adding drug were set as control group. Finally, the intracellular cADPR level was detected to represent the activity of SARM1, and the inhibition rate of SARM1 in cells by 50 μM inhibitor was calculated.
The cADPR measurement was performed as follows. First, the cells were washed once with PBS, and added with 150 μl of pre-cooled 0.6M perchloric acid (PCA) to quickly lyse the cells and precipitate the protein. The PCA supernatant was transferred to a 1.5 ml centrifuge tube. The protein in the culture medium was dissolved again with 100 μl of 1M NaOH. The supernatant was added with 0.5 ml of organic reagent mixture (trioctylamine:chloroform=1:3) to extract PCA from water. After sufficient shaking, the mixture was centrifuged at 12,000 rpm for 10 minutes. The solution was divided into 3 layers: the upper aqueous phase, containing the small molecules of interest; the lower organic phase, in which PCA was dissolved; and a thin protein layer between the upper and lower layers. The upper layer was transferred to a new centrifuge tube, added with 1M Tris-Mg at a ratio of 1:100 (1M Tris (pH 8.0): 1M MgCl2=9:1), added with NADase at a ratio of 1:250, and treated at 37° C. overnight to remove NAD^+ from the mixed solution. After the treatment was completed, the mixed solution was filtered using Millipore's 10 K 96-well filter plate to remove NADase.
The cADPR content in the solution was determined through Cycling analysis method. The specific steps were as follows: 20 μl of the sample to be tested or the cADPR standard was taken and added to a 96-well opaque white plate. Preparation of reaction solution: 9.6 ml of PBS (pH 7.4), 200 μl of ethanol, 150 μl of 1 mg/ml AD, 10 μl of 10 mM FMN, 5 μl of 18 mg/ml Diaphorase, 10 μl of 10 mM Resazurin, and 100 μl of 1M Nam. Half of the reaction solution was divided and added with 0.2 μg/ml cyclase. The reaction solution without adding cyclase was used as control experiment. Each sample was divided into two groups, 3 replicates in each group. The reaction solutions containing or not containing cyclase were added to each group to perform the reaction. The reaction kinetic curve within 30 minutes was recorded (Ex:Em=544/599). The average slope of the reaction was calculated. Conversion was performed according to cADPR standard to obtain the accurate cADPR content. A curve of intracellular cADPR content vs corresponding inhibitor concentration was plotted. The half inhibitory concentration of the inhibitor was calculated.

Row | Compound | IC50 (dN-SARM1 protein) [µM] | EC50 [1] [µM]
1 | O=C(Nc1cccc(-c2cnc3ccc(N4CCOCC4)cn23)c1)[C@H]1C[C@@H](N2CCOCC2)C1 [Compound 230] | 1 to 10 | 1 to 10
2 | CN(C(=O)OC(C)(C)C)c1ccc2ncc(-c3cccc(NC(=O)COCCOCCOCC(=O)Nc4cccc(-c5cnc6ccc(N(C)C(=O)OC(C)(C)C)cn56)c4)c3)n2c1 [Compound 121, ((((2,2′-((oxybis(ethane-2,1-diyl))bis(oxy))bis(acetyl))bis(azadiyl))bis(3,1-phylene))bis(imidazo[1,2-a]pyridin-3,6-diyl))bis(tert-butyl (methyl)carbamate)] | < 1 | < 1
3 | CC(=O)Nc1cccc(-c2cnc3ccc(N(C)C(=O)OC(C)(C)C)cn23)c1 [Compound 96, tert-butyl (3-(3-acetylaminophenyl)imidazo[1,2-a]pyridin-6-yl)(methyl)carbamate] | < 1 | 1 to 10
4 | COc1cccc(-c2cnc3ccc(N(C)C(=O)OC(C)(C)C)cn23)c1 [Compound 13] | < 1 | 1 to 10
5 | CN(C(=O)OC(C)(C)C)c1ccc2ncc(-c3ccncc3F)n2c1 [Compound 278] | 1 to 10 | 1 to 10
6 | CN(C(=O)OC(C)(C)C)c1ccc2ncc(-c3cccc(NC(=O)COCCOCCOCC(N)=O)c3)n2c1 [Compound 99, tert-butyl (3-(3-(2-(2-(2-(2-amino-2-oxoethoxy)ethoxy)ethoxy)acetamido)phenyl)imidazolin[1,2-a]pyridin-6-yl)(methyl)carbamate] | 1 to 10 | 1 to 10
7 | CN(C(=O)OC(C)(C)C)c1ccc2ncc(-c3cccc(CNC(=O)OC(C)(C)C)c3)n2c1 [Compound 254] | < 1 | 1 to 10
8 | CN(C(=O)OC(C)(C)C)c1ccc2ncc(-c3cccc(NC(=O)COCCOCC(=O)Nc4cccc(-c5cnc6ccc(N(C)C(=O)OC(C)(C)C)cn56)c4)c3)n2c1 [Compound 116, ((((((2,2′-(ethane-1,2-diylbis(oxy))bis(acetyl))bis(azadialkyl))bis(31-phenylene))bis(imidazo[1,2-a]pyridin-3,6-diyl))bis(tert butylmethylcarbamate)] | < 1 | < 1
9 | CNc1ccc2ncc(-c3cccc(OC)c3)n2c1 [Compound 70] | 1 to 10 | 1 to 10
10 | CN(C(=O)OC(C)(C)C)c1ccc2ncc(-c3cccc(NC(=O)COC4CCOC4)c3)n2c1 (stereo not shown) [Compound 237] | < 1 | < 1
11 | CN(C(=O)OC(C)(C)C)c1ccc2ncc(-c3cccc4c3CC(=O)N4)n2c1 [Compound 260] | < 1 | 1 to 10
12 | CN(C(=O)OC(C)(C)C)c1ccc2ncc(-c3cccc(NC(=O)[C@H]4CCOC4)c3)n2c1 [Compound 239] | < 1 | < 1
13 | CC(C)(C)OC(=O)N(C/C=C/c1cccc(N)c1)c1ccc2ncc(-c3cccc(N)c3)n2c1 [Compound 212, tert-butyl (E)-(3-(3-aminophenyl)allyl)(3-(3-aminophenyl)imidazo[1,2-a]pyridin-6-yl)carbamate] | 1 to 10 | < 1
14 | CN(C(=O)OC(C)(C)C)c1ccc2ncc(-c3ccc(NC(=O)c4ccccc4)s3)n2c1 [Compound 181] | 1 to 10 | 1 to 10
15 | CN(C(=O)COC1CCOC1)c1cccc(-c2cnc3ccc(N(C)C(=O)OC(C)(C)C)cn23)c1 (stereo not shown) [Compound 160] | < 1 | < 1
16 | CNc1ccc2ncc(-c3cccc(NC(=O)c4ccccc4)c3)n2c1 [Compound 251] | 1 to 10 | 1 to 10
17 | CNc1ccc2ncc(-c3ccccc3Cl)n2c1 [Compound 68, 3-(2-chlorophenyl)-N-methylimidazo[1,2-a]pyridin-6-amine] | 1 to 10 | 1 to 10

Row | Compound | IC50 (dN-SARM1 protein) [µM] | EC50 [1] [µM]
18 | CN(C(=O)OC(C)(C)C)c1ccc2ncc(-c3cccc(N)c3)n2c1 [Compound 2] | < 1 | 1 to 10
19 | CN(C(=O)OC(C)(C)C)c1ccc2ncc(-c3cccc(NC(=O)C4CCCO4)c3)n2c1 (stereo not shown) [Compound 245] | 1 to 10 | < 1
20 | CN(C(=O)OC(C)(C)C)c1ccc2ncc(-c3cccc(OCCOC4CCOC4)c3)n2c1 (stereo not shown) [Compound 155] |  | < 1
21 | O=C(Nc1cccc(-c2cnc3ccc(NC/C=C/c4ccccc4)cn23)c1)C1CCOCC1 [Compound 215] |  | < 1
22 | CC(C)(C)C(=O)Nc1ccc2ncc(I)n2c1 [Compound 304] | 1 to 10 | 
23 | CN(C(=O)OC(C)(C)C)c1ccc2ncc(-c3cccc4cnn(C)c34)n2c1 [Compound 267] | < 1 | 
24 | CNc1ccc2ncc(-c3ccc4ccncc4c3)n2c1 [Compound 271] | < 1 | 
25 | CN(C(=O)OC(C)(C)C)c1ccc2ncc(-c3ccc4c(c3)CNC4=O)n2c1 [Compound 265] | < 1 | 
26 | CN(C(=O)OC(C)(C)C)c1ccc2ncc(-c3ccnc4c3ccn4C)n2c1 [Compound 293] | < 1 | 
27 | CN(C)c1ccc2ncc(-c3cccc4c3CNC4=O)n2c1 [Compound 223] | < 1 | 
28 | CN(C(=O)OC(C)(C)C)c1ccc2ncc(-c3cccc4c3ccn4C)n2c1 [Compound 285] | 1 to 10 | 
29 | CNc1ccc2ncc(-c3ccnc4c3ccn4C)n2c1 [Compound 294] | 1 to 10 | 
30 | CNc1ccc2ncc(-c3cccc(NC(=O)c4ccccc4)n3)n2c1 [Compound 172] | < 1 | 
31 | COCCNc1cccc(-c2cnc3ccc(N4CCOCC4)cn23)c1 [Compound 232] | 1 to 10 | 
32 | CN(C(=O)OC(C)(C)C)c1ccc2ncc(-c3ccccn3)n2c1 [Compound 18] | 1 to 10 | 
33 | CN(C(=O)OC(C)(C)C)c1ccc2ncc(-c3cccc4cnccc34)n2c1 [Compound 263] | < 1 | 
